{"source": "patent US20230060715A1", "about": "“USE OF FXR AGONISTS FOR TREATING AN INFECTION BY HEPATITIS D VIRUS” (INSERM (INSTITUT NATIONAL DE LA SANTÉ ET DE LA RECHERCHE …, priority 2020, published 2023)", "key": {"[1]": {"tested_on": "HDV genomic RNA", "test": "HDV genomic RNA in HDV monoinfected dHepaRG cells (Northern Blot)", "conditions": "day 4 to 11 post-infection", "description": "Differentiated HepaRG cells were infected with HDV at a MOI of 25 GE/cell. From day 4 to day 11 post-infection, cells were treated with 1 or 10 μM of GW4064, 10 μM of 6-ECDCA and 1 μM of tropifexor. At day 11 post HDV infection, cells were collected and HDV genomic RNA was analyzed by Northern Blot.\nTo determine if FXRα-mediated inhibition of HDV was independent of HBV, the inventors analyzed the impact of FXRα agonists in HDV mono-infected dHepaRG cells.\nTotal RNA was extracted from infected cells using Tri Reagent® (TR118, Molecular Research Center). […] After electrotransfer to charged nylon membranes (Roche), genomic HDV RNA sequences were detected by using a strand-specific RNA probe synthesized using the Dig RNA Labeling kit (Sp6/T7) (Roche) and DIG luminescent detection kit (Roche) accordinng to the manufacturer's instruction. Quantification of signals were done with ImageLab.\nAs an internal control for the amount and quality of the extracted RNA, the membrane was stripped and rehybridized by using labeled oligonucleotides specific for human 18S rRNA and 28S rRNA."}, "[2]": {"tested_on": "HDV", "test": "HDV replication in HDV monoinfected dHepaRG cells (total HDV RNA, RT-qPCR)", "assay_type": "cell-based, Hepatitis D virus", "conditions": "day 4 to 11 post-infection", "experimental": "FIG. 6. FXRα agonists inhibit HDV replication in monoinfected dHepaRG cells.\nTotal RNA was prepared using NucleoSpin RNA Plus (Macherey-Nagel). After DNA digestion with TURBO DNase (Ambion), maximum 1000 ng RNA were reverse-transcribed using High-Capacity RNA-to-cDNA kit (Thermo Fisher Scientific). […] . All assays were performed in triplicate."}, "[3]": {"tested_on": "HDV", "test": "Secretion of HDV RNA from HBV/HDV coinfected dHepaRG cells (RT-qPCR of concentrated supernatants)", "conditions": "10 μM for 10 days", "description": "(A) Supernatants of infected dHepaRG cells were collected, concentrated by PEG precipitation and the levels of extracellular HDV RNAs were assessed by qRT-PCR analyses. […] Results of RT-qPCR are the mean+/−SD of three independent experiments each performed with three biological replicates.\n(§1) For analysis of HDV virion specific infectivity, supernatants from dHepaRG infected with both HBV and HDV were concentrated using 8% PEG 8000. HDV RNA was quantified by RT-qPCR in concentrates and Huh7.5^NTCP cells were infected using same viral genome equivalents (vge) of concentrated virus for each condition of treatment. Six days post infection, total cellular RNA was extracted and HDV RNA was quantified by RT-qPCR."}, "[4]": {"tested_on": "HDV", "test": "HDV replication in HBV/HDV coinfected dHepaRG cells (intracellular HDV RNA, RT-qPCR)", "assay_type": "cell-based, Hepatitis D virus", "conditions": "10 μM, treated day 3 to 13 post-infection", "experimental": "The HepaRG cell line derived from a human cellular hepato carcinoma can differentiate and regain many phenotypic traits of hepatocytes after 4 weeks of culture under defined conditions^1. HepaRG cells were cultured, differentiated, and infected by HBV and HDV as previously described^2,3.\nTotal RNA was prepared using NucleoSpin RNA Plus (Macherey-Nagel). After DNA digestion with TURBO DNase (Ambion), maximum 1000 ng RNA were reverse-transcribed using High-Capacity RNA-to-cDNA kit (Thermo Fisher Scientific). […] All assays were performed in triplicate."}, "[5]": {"conditions": "in vivo; cited from earlier work"}, "[6]": {"tested_on": "HDV antigens (HDAg-L, HDAg-S)", "conditions": "superinfected PHH, Western Blot densitometry normalized to B-tubulin", "description": "PHH were infected with HBV at a MOI of 100 GE/cell and 4 days later with HDV at a MOI of 10 GE/cell. […] Cells and supernatants were harvested at day 14 post HBV infection for intracellular HDV RNA quantification and lysed for protein extraction and WB analyses. Graphs represent the densitometry analyses of the respective blots and results are presented as ratios of HDAgs normalized to the levels of B-tubulin.\n(§2) Cells were harvested in RIPA lysis buffer (NaCl 150 mM, Tris HCl pH=8.0 50 mM, SDS 0.1%, NP40 1%, Na Deoxycholate 0.5%) containing protease inhibitors (Protein Cocktail Inhibitors from Sigma-Aldrich, NaF 10 mM, Na Orthovanadate 10 mM). Clarified lysates were subjected to 10% SDS-PAGE and Western Blot transfer onto PVDF or nitrocellulose membranes using the TransTurbo Blot apparatus according to the manufacturer (Biorad). Primary antibodies are the HDVAg antibody (kind gift of Dr Alain Kay) and the beta-tubulin antibody (Abcam). Secondary HRP antibodies were purchased from Sigma-Aldrich. HRP signal detection was determined electronically using Ozyme—Syngene PXi Image system and parameters set strictly below the saturation point."}, "[7]": {"tested_on": "nascent HDV RNAs", "test": "Run-On assay of nascent HDV RNAs in HBV/HDV co-infected dHepaRG", "assay_type": "cell-based, Hepatitis D virus", "conditions": "10 μM for 4 days, 2 h labelled uridin, coinfected dHepaRG", "experimental": "FIG. 8. Decrease of the levels of nascent HDV RNAs in HBV/HDV co-infected dHepaRG treated with FXRα agonists. dHepaRG were co-infected with HBV (100 vge/cell) and with HDV (10 vge/cell). […] Cells were incubated with labelled uridin or not (mock-EU) for 2 h, washed and harvested. Total intracellular HDV RNAs as well as EU-labelled HDV RNAs (nascent intracellular HDV RNAs) were isolated and quantified by RT-qPCR analyses. As a control, cells were treated with actinomycin D (10 μg/mL, ActD) 20 min before incubation with labelled uridin in order to block transcription of nascent RNAs. Results are the mean+/−SD one experiment performed with three biological replicates.\nSix days post-infection, cells were treated with 10 μM of GW4064 for 4 days before Run-On experiment.\nHDV-infected HepaRG cells were incubated with labelled uridin or not (mock-EU) for 2 h, washed and harvested. Total intracellular HDV RNAs as well as EU-labelled HDV RNAs (nascent intracellular HDV RNAs) were isolated using the Click-iT™ Nascent RNA Capture Kit (Thermofisher Scientific) according to the manufacturer's instruction. As a control, cells were treated with 10 μg/mL of actinomycin D 20 min before incubation with labelled uridin in order to block transcription of nascent RNAs."}, "[8]": {"tested_on": "HDV", "test": "HDV replication in HBV-infected dHepaRG super-infected with HDV (intracellular HDV RNA, RT-qPCR)", "assay_type": "cell-based, Hepatitis D virus", "conditions": "7 days treatment, superinfected dHepaRG"}, "[9]": {"tested_on": "HBV", "test": "Anti-HBV activity in HBV/HDV coinfected dHepaRG cells (intracellular HBV RNAs, secreted HBs and HBe antigens)", "assay_type": "cell-based, Hepatitis B virus", "conditions": "10 μM, day 13", "from_the_text": "FIG. 1. FXRα agonist inhibits HDV replication in HBV-HDV coinfected dHepaRG cells. […] Cells and supernatants were harvested at day 13 for intracellular HBV and HDV RNA and secreted antigens quantification. Results are the mean+/−SD of two experiments performed with three biological replicates.\nThe inventors first evaluated the impact of FXRα agonists on HDV replication in in vitro coinfected dHepaRG cells. Cells were simultaneously infected with HBV and HDV. […] At day 13 post-infection, cells and supernatants were collected. The intracellular amounts of HDV and HBV RNAs were quantified as well as secreted HBe and HBs antigens.\nHBV stocks (genotype D, Genbank ID U95551) were prepared using the HepAD38 cell line according to previously described protocols^7.\nHBs and HBe antigens secreted in cells supernatant were quantified, after required dilutions, on Mini Vidas apparatus with Vidas HBs and Vidas HBE/HBET kits (bioMerieux, France) or Autobio kits (AutoBio, China) according to manufacturer's protocol.\nTotal RNA was prepared using NucleoSpin RNA Plus (Macherey-Nagel). After DNA digestion with TURBO DNase (Ambion), maximum 1000 ng RNA were reverse-transcribed using High-Capacity RNA-to-cDNA kit (Thermo Fisher Scientific). Quantitative PCR was carried out with primers HDV-F (5′-[…] -3′, SEQ ID NO: 1) and HDV-R (5′-[…] -3′, SEQ ID NO: 2) for quantification of total HDV RNA and HBV-F (5′-[…] -3′, SEQ ID NO: 3) and HBV-R (5′-[…] -3′, SEQ ID NO: 4) for quantification of pregenomic/precore HBV RNA. cDNA was analysed by quantitative PCR (qPCR) using QuantiFast SYBR® Green PCR kit (Qiagen) on LightCycler® 480 instrument (Roche) using a 45 PCR cycles. All assays were performed in triplicate. Relative quantification was determined by normalizing the expression of each gene to S9 housekeeping gene using primers S9-F (5′-[…] -3′, SEQ ID NO: 5) and S9-R (5′-[…] -3′, SEQ ID NO: 6)."}, "[10]": {"tested_on": "HDV", "test": "HDV replication in HBV-infected PHH super-infected with HDV (intracellular HDV RNA, RT-qPCR)", "assay_type": "cell-based, Hepatitis D virus", "conditions": "7 days treatment, superinfected PHH"}, "[11]": {"tested_on": "HDV antigens (HDAg-L, HDAg-S)", "conditions": "superinfected dHepaRG, Western Blot densitometry normalized to B-tubulin", "description": "Differentiated HepaRG cells were infected with HBV at a MOI of 100 GE/cell and 7 days later with HDV at a MOI of 10 GE/cell. […] Cells were harvested at day 17 post HBV infection and lysed for protein extraction and WB analyses. Graphs represent the densitometry analyses of the respective blots and results are presented as ratios of HDAgs normalized to the levels of B-tubulin.\nas §2"}, "[12]": {"tested_on": "HDV particles", "test": "Specific infectivity of secreted HDV particles on naïve Huh7.5-NTCP cells", "conditions": "6 days post infection", "description": "(A) Supernatants of infected dHepaRG cells were collected, concentrated by PEG precipitation and the levels of extracellular HDV RNAs were assessed by qRT-PCR analyses. (B-C) Naïve HuH7.5-^NTCP cells were infected with the different concentrated supernatants with (B) 500 vge/cell or (C) as indicated. Six days later, levels of intracellular HDV RNAs were assessed by RT-qPCR analyses. Results of RT-qPCR are the mean+/−SD of three independent experiments each performed with three biological replicates.\nFinally, naïve Huh7.5-^NTCP cells were infected with the same concentrated supernatants but using two different HDV inoculum, 100 and 500 vge/cell, for each condition.\nas §1"}}, "note": "Like-named read-outs stand apart in the source and are kept apart here.", "data": [{"smiles": "O=C(O)c1cc(F)c2nc(N3[C@@H]4CC[C@H]3C[C@@H](OCc3c(-c5ccccc5OC(F)(F)F)noc3C3CC3)C4)sc2c1", "note": "[tropifexor, 2-[(1R,3r,5S)-3-({5-cyclopropyl-3-[2-(trifluoromethoxy)phenyl]-1,2-oxazol-4-yl}methoxy)-8-azabicyclo[3.2.1]octan-8-yl]-4-fluoro-1,3-benzothiazole-6-carboxylic acid]", "values": [{"measurement": "amount of genomic HDV RNA", "setting": "[1]; 1 μM", "result": "decreased"}, {"measurement": "decrease of total HDV RNA", "setting": "[2]; 1 μM", "result": "around 60%"}]}, {"smiles": "CC[C@H]1[C@@H](O)[C@@H]2[C@H](CC[C@]3(C)[C@@H]([C@H](C)CCC(=O)O)CC[C@@H]23)[C@@]2(C)CC[C@@H](O)C[C@@H]12", "note": "[6-ECDCA, 6-ethyl-cheno-deoxycholic acide]", "values": [{"measurement": "amount of genomic HDV RNA", "setting": "[1]; 10 μM", "result": "decreased"}, {"measurement": "decrease of total HDV RNA", "setting": "[2]; 10 μM", "result": "around 60%"}]}, {"smiles": "CC(C)c1onc(-c2c(Cl)cccc2Cl)c1COc1ccc(/C=C/c2cccc(C(=O)O)c2)c(Cl)c1", "note": "[GW4064, 3-[2-[2-Chloro-4-[[3-(2,6-dichloro-phenyl)-5-(1-methylethyl)-4-isoxazolyl]methoxy]phenyl]ethenyl] benzoic acid]", "values": [{"measurement": "decrease of secreted HDV RNA", "setting": "[3]", "result": 65, "unit": "%"}, {"measurement": "amount of genomic HDV RNA", "setting": "[1]; 10 μM", "result": "decreased"}, {"measurement": "decrease of total intracellular HDV RNA", "setting": "[4]", "result": 60, "unit": "%"}, {"measurement": "bioavailability", "setting": "[5]", "result": "limited"}, {"measurement": "decrease of total HDV RNA", "setting": "[2]; 10 μM", "result": "around 60%"}, {"measurement": "reduction of HDAg-L (large HDV antigen) amount", "setting": "[6]", "result": 75, "unit": "%"}, {"measurement": "reduction of HDAg-S (small HDV antigen) amount", "setting": "[6]", "result": 75, "unit": "%"}, {"measurement": "synthesis of nascent HDV RNA", "setting": "[7]", "result": "able to inhibit"}, {"measurement": "decrease of total intracellular HDV RNA", "setting": "[8]; 1 μM", "result": "very pronounced"}, {"measurement": "decrease of total intracellular HDV RNA", "setting": "[8]; 10 μM", "result": "up to 60%"}, {"measurement": "anti-HBV activity on amount of intracellular HBV RNAs", "setting": "[9]", "result": "verified"}, {"measurement": "anti-HBV activity on secreted HBe antigen", "setting": "[9]", "result": "verified"}, {"measurement": "anti-HBV activity on secreted HBs antigen", "setting": "[9]", "result": "verified"}, {"measurement": "decrease of total intracellular HDV RNA", "setting": "[10]; 1 μM", "result": "very pronounced"}, {"measurement": "decrease of total intracellular HDV RNA", "setting": "[10]; 10 μM", "result": "≤ 45", "unit": "%"}, {"measurement": "reduction of HDAg-L (large HDV antigen) amount", "setting": "[11]", "result": 75, "unit": "%"}, {"measurement": "reduction of HDAg-S (small HDV antigen) amount", "setting": "[11]", "result": 75, "unit": "%"}, {"measurement": "intracellular HDV RNA levels with inoculum 100 versus 500 vge/cell", "setting": "[12]; Huh7.5-NTCP infected with supernatants of treated dHepaRG", "result": "no significant difference"}, {"measurement": "decrease of intracellular HDV RNA in cells infected with supernatants of treated dHepaRG", "setting": "[12]; producer cells treated 10 μM, Huh7.5-NTCP infected with 500 vge/cell", "result": "more than 95%"}]}]}
